Measurements from article PMC11672801, “Synthesis of Temporin-SHa Retro Analogs with Lysine Addition/Substitution and Antibiotic Conjugation to Enhance Antibacterial, Antifungal, and Anticancer Activities” (Antibiotics, 2024).
≈ marks a conversion by molar mass, not a printed value. Read-outs that look alike come from different tables or passages of the source. Where a SMILES comes first, the peptide text is derived from it. [ ]: non-standard residue; d: D form. The star is where a group is joined. Levofloxacinoyl = C[C@H]1COc2c(N3CCN(C)CC3)c(F)cc3c(=O)c(C(=O)*)cn1c23; βAla = NCCC(=O)O

Legend:
B. subtilis (ATCC 23857) = assay: Antibacterial broth microdilution MIC assay; format: cell-based, Bacillus subtilis; details: >99% inhibition of growth, MH broth, 20-22 h, 37 °C
Procedure: (§1) The antibacterial activity of peptide analogs was tested against different bacterial strains, i.e., Salmonella enterica subsp. enterica serotype Typhimurium or Salmonella typhi (ATCC 14028), Staphylococcus aureus (NCTC 13277), Bacillus subtilis (ATCC 23857), Escherichia coli (ATCC 25922), and Pseudomonas aeruginosa (ATCC 10145). These strains were obtained from the microbial bank of Dr. Panjwani Center for Molecular Medicine and Drug research (PCMD), International Center for Chemical and Biological Sciences (ICCBS), University of Karachi. Colonies of these bacterial strains were grown in respective agar media, then inoculated in Mueller Hinton (MH) broth (Oxoid, UK) and incubated at 37 °C overnight. The peptide solutions were first diluted 1 in 100 (from the stock solution at 20 mM) and then further two-fold dilution in MH broth in a sterile 96-well plate was performed, resulting in 100 µL of broth containing increasing concentrations of analogs. Bacteria in their exponential growth phase were diluted in MH broth, and 100 µL of this suspension was added in each well. […] Then, these plates were incubated at 37 °C for 20–22 h. MIC (Minimum Inhibitory Concentration) values were determined as the concentrations of peptides causing >99% inhibition of bacterial growth.

E. coli (ATCC 25922) = assay: Antibacterial broth microdilution MIC assay; format: cell-based, Escherichia coli; details: >99% inhibition of growth, MH broth, 20-22 h, 37 °C
Procedure: as §1

[1] = system: P. aeruginosa (ATCC 10145); assay: Antibacterial broth microdilution MIC assay; format: cell-based, Pseudomonas aeruginosa; details: >99% inhibition of growth, MH broth, 20-22 h, 37 °C
Procedure: as §1

C. albicans (ATCC 36082) = assay: microbe, parasite or virus in culture
Procedure: Candida albicans (ATCC 36082) was cultured on Sabourad Dextrose Agar (SDA). A single colony was inoculated in Sabouraud Dextrose Broth (SDB) medium and grown overnight at 37 °C while shaking. The next day, the susceptibility of C. albicans was tested using a broth microdilution assay. Peptide analogs were diluted in SDB media by two-fold dilution, resulting in 100 µL of medium containing increasing concentrations of analogs. The overnight culture (turbidity at OD600 = 1) was 1000× diluted in SDB. Then 100 µL of this suspension was added to each well, resulting in a final 200 µL suspension containing 2–4 × 10^5 CFU/mL. The plate was incubated at 37 °C for 24 h. The next day, MIC (Minimum Inhibitory Concentration) values were determined as the concentrations of peptides causing > 99% inhibition of yeast growth.

[2] = system: Human breast cancer (MCF-7) cells; assay: cells; format: cell-based
Procedure: (§2) Human breast cancer (MCF-7) and human cervical cancer (HeLa) cells were obtained from the cell culture bank of PCMD in ICCBS, University of Karachi. These cells were maintained in Dulbecco’s Modified Eagle Medium (DMEM), supplemented with 10% fetal bovine serum, and incubated at 37 °C and 5% CO2. The antiproliferative activity of the samples was determined by a MTT assay. Briefly, the cells were washed with PBS and trypsinized. After determination of the cell number using Malassez cell counting, 100 µL of the cell suspension were seeded in a 96-well plate at the density of 6000 cells/well and incubated at 37 °C and 5% CO2. After 24 h, the cells were treated with increasing concentrations of analogs. The next day, media was removed and 200 µL of MTT dye (0.5 mg/mL) was added in each well and incubated for 3 h at 37 °C in 5% CO2 incubator. Then, the media was removed and 100 µL of DMSO was added to solubilize formazan crystals. After one minute of shaking, the absorbance was recorded at 540 nm in microplate reader (Multiskan GO, ThermoScientific, Waltham, MA, USA). Finally, the percent inhibition of proliferation was calculated using the following formula: % inhibition of proliferation=O.D of treated well−O.D of media control/O.D of untreated control−O.D of media control×100

[3] = system: human cervical cancer (HeLa) cells; assay: cells; format: cell-based; details: 24 h
Procedure: as §2

[4] = system: human red blood cells (RBC); assay: Hemolytic assay; format: cell-based
Procedure: For the hemolytic assay, fresh human blood (2 mL) was obtained from a healthy donor in EDTA tube while following the protocol of approval from the Independent Ethics Committee of ICCBS (approval number ICCBS/IEC-047-HB-2019/Protocol/1.0). The blood was centrifuged and upper supernatant plasma was removed. The cell pellets were washed with sterile PBS three times. The washed blood cells were then diluted 25 times to make 4% concentration of the initial blood cells. Red blood cells (500 µL) were treated with increasing concentrations of analogs, with triton X-100 at 0.1% being used as positive control giving 100% hemolysis. After 1 h of incubation at 37 °C, tubes were centrifuged at 800 rpm for 5 min to pellet down red blood cells. After centrifugation, 200 µL of supernatant were transferred into a 96 well plate and the absorbance was recorded at 576 nm using a microplate reader (MultiSkan Go, ThermoScientific). Then, the following formula was applied to calculate percent hemolysis: % Hemolysis=O.D of test sample−O.D of PBS control/O.D of Tritox×positive control−O.D of PBS control×100

S. aureus (NCTC 13277) = details: >99% inhibition of growth, MH broth, 20-22 h, 37 °C
[5] = Circular dichroism secondary structure analysis (Bestsel) in 20 mM SDS; format: physicochemical; details: CD, 15 µM peptide in 20 mM SDS, 22 °C
Procedure: The far-ultraviolet circular dichroism (CD) spectra were recorded using a JASCO J-810 spectropolarimeter (Jasco, Tokyo, Japan), with measurements taken in a quartz cuvette with a 10 mm path length. The temperature was kept at 22 °C, and the instrument was calibrated with D-(+)-10-camphorsulfonic acid. Peptides were dissolved in 20 mM SDS to a final concentration of 15 µM. The CD spectra were collected over a wavelength range of 190 to 260 nm with a bandwidth of 2 nm. Each spectrum was recorded with ten consecutive scans at a rate of 50 nm/min, and the baseline was obtained under identical conditions. Secondary structures, i.e., the percentage of alpha-helix and other secondary structures, were quantified from CD data using Bestsel software (https://bestsel.elte.hu/index.php, accessed on 22 October 2024).

[6] = >99% inhibition of yeast growth, SDB, 24 h, 37 °C
[7] = MTT, 24 h exposure, read-out: IC50 on Breast Cancer (MCF-7)
[8] = >99% inhibition of growth, MH broth, 20-22 h, 37 °C

Compound | MIC (B. subtilis (ATCC 23857)) | MIC (E. coli (ATCC 25922)) | MIC [1] | MIC C. albicans (ATCC 36082) (C. albicans (ATCC 36082); [6]) | IC50 ([2]; 24 h) | IC50 [3] | HC50 on Human Red Blood Cells (RBCs) ([4]; red cells of human, 1 h) | MIC S. aureus (NCTC 13277) (S. aureus (NCTC 13277)) | MIC S. typhi (ATCC 14028) (S. typhi (ATCC 14028); ATCC 14028) | MIC C. albicans (ATCC 36082) (C. albicans (ATCC 36082); ATCC 36082, 24 h) | IC50 [2, 7] | HC50 on Human Red Blood Cells (RBCs) [4] | Antiparallel (%) [5] | Helix (%) [5] | Others (%) [5] | Parallel (%) [5] | Turn (%) [5] | MIC S. typhi (ATCC 14028) (S. typhi (ATCC 14028); [8])
CC[C@H](C)[C@H](NC(=O)[C@@H](NC(=O)CNC(=O)[C@H](CCSC)NC(=O)[C@H](CC(C)C)NC(=O)CNC(=O)[C@H](CCCCN)NC(=O)[C@H](CC(C)C)NC(=O)[C@H](Cc1ccccc1)NC(=O)CCNC(=O)c1cn2c3c(c(N4CCN(C)CC4)c(F)cc3c1=O)OC[C@@H]2C)C(C)C)C(=O)N[C@H](C)C(=O)N[C@@H](CO)C(=O)N[C@@H](CC(C)C)C(=O)N[C@@H](Cc1ccccc1)C(=O)N[C@@H](CCCCN)C(N)=O [RLFP-3 (6), LF-β-Ala-Phe^1-Leu^2-Lys^3-Gly^4-Leu^5-Met^6-Gly^7-Val^8-Ile^9-D-Ala^10-Ser^11-Leu^12-Phe^13-Lys^14-NH2] ({Levofloxacinoyl-βAla}-FLKGLMGVI[dA]SLFK-NH2) | 1.56 µM (≈ 3.02 µg/mL) | 25 µM (≈ 48.4 µg/mL) | 12.5 µM (≈ 24.2 µg/mL) | 3.12 µM (≈ 6.04 µg/mL) | 13.3 µM | 12.1 µM | 6.6 µM | 12.5 µM (≈ 24.2 µg/mL) | 3.12 µM (≈ 6.04 µg/mL) | – | – | – | – | – | – | – | – | –
CC[C@H](C)[C@H](NC(=O)[C@@H](NC(=O)CNC(=O)[C@H](CCSC)NC(=O)[C@H](CC(C)C)NC(=O)[C@H](CCCCN)NC(=O)[C@H](CCCCN)NC(=O)[C@H](CC(C)C)NC(=O)[C@@H](N)Cc1ccccc1)C(C)C)C(=O)N[C@H](C)C(=O)N[C@@H](CO)C(=O)N[C@@H](CC(C)C)C(=O)N[C@@H](Cc1ccccc1)C(N)=O [RSP-4 (7), H-Phe^1-Leu^2-Lys^3-Lys^4-Leu^5-Met^6-Gly^7-Val^8-Ile^9-D-Ala^10-Ser^11-Leu^12-Phe^13-NH2] (H-FLKKLMGVI[dA]SLF-NH2) | 12.5 µM (≈ 18.3 µg/mL) | 50 µM (≈ 73.3 µg/mL) | 200 µM (≈ 293 µg/mL) | – | – | 56.9 µM | – | 50 µM (≈ 73.3 µg/mL) | – | 100 µM (≈ 147 µg/mL) | 39.9 µM | > 100 µM | 22.1% | 56.8% | 13.6% | 0.00% | 7.6% | 100 µM (≈ 147 µg/mL)
CC[C@H](C)[C@H](NC(=O)[C@@H](NC(=O)CNC(=O)[C@H](CCSC)NC(=O)[C@H](CC(C)C)NC(=O)[C@H](CCCCN)NC(=O)[C@H](CCCCN)NC(=O)[C@H](CC(C)C)NC(=O)[C@H](Cc1ccccc1)NC(=O)CCNC(=O)c1cn2c3c(c(N4CCN(C)CC4)c(F)cc3c1=O)OC[C@@H]2C)C(C)C)C(=O)N[C@H](C)C(=O)N[C@@H](CO)C(=O)N[C@@H](CC(C)C)C(=O)N[C@@H](Cc1ccccc1)C(N)=O [RLFP-4 (8), LF-β-Ala-Phe^1-Leu^2-Lys^3-Lys^4-Leu^5-Met^6-Gly^7-Val^8-Ile^9-D-Ala^10-Ser^11-Leu^12-Phe^13-NH2] ({Levofloxacinoyl-βAla}-FLKKLMGVI[dA]SLF-NH2) | 1.56 µM (≈ 2.93 µg/mL) | 25 µM (≈ 47 µg/mL) | 12.5 µM (≈ 23.5 µg/mL) | – | 23.8 µM | 15.5 µM | 4.5 µM | 6.25 µM (≈ 11.8 µg/mL) | 50 µM (≈ 94 µg/mL) | >200 µM | – | – | – | – | – | – | – | –
CC[C@H](C)[C@H](NC(=O)[C@@H](NC(=O)CNC(=O)[C@H](CCSC)NC(=O)[C@H](CC(C)C)NC(=O)CNC(=O)[C@H](CCCCN)NC(=O)[C@H](CC(C)C)NC(=O)[C@@H](N)Cc1ccccc1)C(C)C)C(=O)N[C@H](C)C(=O)N[C@@H](CO)C(=O)N[C@@H](CC(C)C)C(=O)N[C@@H](Cc1ccccc1)C(N)=O [RNST-2 (2), H-Phe^1-Leu^2-Lys^3-Gly^4-Leu^5-Met^6-Gly^7-Val^8-Ile^9-D-Ala^10-Ser^11-Leu^12-Phe^13-NH2] (H-FLKGLMGVI[dA]SLF-NH2) | 1.56 µM (≈ 2.18 µg/mL) | 50 µM (≈ 69.7 µg/mL) | 200 µM (≈ 279 µg/mL) | 15.6 µM (≈ 21.8 µg/mL) | – | 60 µM | 13.8 µM | 3.12 µM (≈ 4.35 µg/mL) | – | – | 53 µM | – | 17.9% | 62% | 0.00% | 20.1% | 0.00% | 50 µM (≈ 69.7 µg/mL)
